Reference: ChEMBL document CHEMBL2073971, “Organic anion-transporting polypeptides mediate transport of opioid peptides across blood-brain barrier” (J Pharmacol Exp Ther, 2000)

Legend:
[1] = molecular target: T1, Solute carrier organic anion transporter family member 1A2 (OATP1A2) (Homo sapiens, UniProt P46721); assay: (§1) TP_TRANSPORTER: uptake in Xenopus laevis oocytes; format: functional, cell-based, Oocyte; settings: Xenopus laevis oocytes expressing the transporter
T1 sequence (P46721 whole entry): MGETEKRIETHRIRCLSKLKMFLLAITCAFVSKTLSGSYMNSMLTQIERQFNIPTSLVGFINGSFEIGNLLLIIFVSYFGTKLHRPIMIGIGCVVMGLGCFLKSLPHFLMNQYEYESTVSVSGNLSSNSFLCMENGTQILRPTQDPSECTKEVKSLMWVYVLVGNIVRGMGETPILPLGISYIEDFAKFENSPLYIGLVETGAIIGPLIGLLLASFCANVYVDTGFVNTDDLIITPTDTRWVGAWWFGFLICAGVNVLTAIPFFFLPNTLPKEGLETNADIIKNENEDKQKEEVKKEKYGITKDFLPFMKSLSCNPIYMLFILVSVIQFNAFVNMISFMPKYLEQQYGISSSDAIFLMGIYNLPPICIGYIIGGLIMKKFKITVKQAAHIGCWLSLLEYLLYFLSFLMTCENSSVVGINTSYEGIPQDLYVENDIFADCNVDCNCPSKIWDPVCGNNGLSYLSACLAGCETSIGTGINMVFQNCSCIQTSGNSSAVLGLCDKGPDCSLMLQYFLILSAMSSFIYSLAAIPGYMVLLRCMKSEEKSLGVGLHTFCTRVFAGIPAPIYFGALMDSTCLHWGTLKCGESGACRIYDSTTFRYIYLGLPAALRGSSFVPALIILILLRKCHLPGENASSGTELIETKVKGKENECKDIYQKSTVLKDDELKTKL

[2] = molecular target: T2, Solute carrier organic anion transporter family member 1A2 (Homo sapiens, UniProt P46721); assay: TP_TRANSPORTER: inhibition of Deltorphin II uptake (Deltorphin II: 50 uM, DPDPE: 500 uM) in Xenopus laevis oocytes; format: functional, cell-based; settings: oocyte
T2 sequence (P46721 whole entry): T1 sequence (P46721 whole entry)

[3] = molecular target: T2, Solute carrier organic anion transporter family member 1A2; assay: TP_TRANSPORTER: inhibition of Deltorphin II uptake (Deltorphin II: 50 uM, DAMGO: 200 uM) in Xenopus laevis oocytes; format: functional, cell-based; settings: oocyte
[4] = molecular target: T3, Solute carrier organic anion transporter family member 1A4 (Rattus norvegicus, UniProt O35913); assay: as §1; format: functional, cell-based; settings: oocyte
T3 sequence (O35913 whole entry): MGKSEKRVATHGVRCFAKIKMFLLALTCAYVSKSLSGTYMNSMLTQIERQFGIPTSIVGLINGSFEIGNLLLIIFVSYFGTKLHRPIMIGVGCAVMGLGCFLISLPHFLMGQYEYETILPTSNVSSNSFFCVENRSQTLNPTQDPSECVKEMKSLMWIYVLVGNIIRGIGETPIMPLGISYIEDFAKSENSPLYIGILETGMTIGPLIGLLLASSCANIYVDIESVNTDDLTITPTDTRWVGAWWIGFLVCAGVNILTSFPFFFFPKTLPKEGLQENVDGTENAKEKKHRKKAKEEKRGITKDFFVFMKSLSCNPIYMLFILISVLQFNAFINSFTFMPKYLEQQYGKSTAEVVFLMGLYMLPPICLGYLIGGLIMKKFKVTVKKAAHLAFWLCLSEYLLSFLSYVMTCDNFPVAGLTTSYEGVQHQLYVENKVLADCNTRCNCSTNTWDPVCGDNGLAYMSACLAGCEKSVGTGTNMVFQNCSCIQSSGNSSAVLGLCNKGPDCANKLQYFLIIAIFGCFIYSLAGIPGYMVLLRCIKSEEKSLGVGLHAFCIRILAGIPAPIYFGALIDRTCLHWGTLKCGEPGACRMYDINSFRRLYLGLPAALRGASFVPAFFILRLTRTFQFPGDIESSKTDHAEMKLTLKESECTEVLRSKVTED

[5] = molecular target: T2, Solute carrier organic anion transporter family member 1A2; assay: TP_TRANSPORTER: inhibition of Deltorphin II uptake (Deltorphin II: 50 uM, E1S: 150 uM) in Xenopus laevis oocytes; format: functional, cell-based; settings: oocyte
[6] = molecular target: T2, Solute carrier organic anion transporter family member 1A2; assay: TP_TRANSPORTER: inhibition of Deltorphin II uptake (Deltorphin II: 50 uM, Naloxone: 1500 uM) in Xenopus laevis oocytes; format: functional, cell-based; settings: oocyte
[7] = molecular target: T2, Solute carrier organic anion transporter family member 1A2; assay: TP_TRANSPORTER: inhibition of Deltorphin II uptake (Deltorphin II: 50 uM, Naltrindole: 1500 uM) in Xenopus laevis oocytes; format: functional, cell-based; settings: oocyte
[8] = substrate: CC1(C)SSC(C)(C)[C@@H](NC(=O)[C@@H](N)Cc2ccc(O)cc2)C(=O)NCC(=O)N[C@@H](Cc2ccccc2)C(=O)N[C@H]1C(=O)O; assay: as §1; format: functional, cell-based, Oocyte
[9] = substrate: CC(C)[C@H](NC(=O)[C@H](CCC(=O)O)NC(=O)[C@H](Cc1ccccc1)NC(=O)[C@@H](C)NC(=O)[C@@H](N)Cc1ccc(O)cc1)C(=O)N[C@H](C(=O)NCC(N)=O)C(C)C; assay: as §1; format: functional, cell-based, Oocyte

## CC1(C)SSC(C)(C)[C@@H](NC(=O)[C@@H](N)Cc2ccc(O)cc2)C(=O)NCC(=O)N[C@@H](Cc2ccccc2)C(=O)N[C@H]1C(=O)O
[1]
  Km: 202 µM
[2]
  Activity: inhibitor [(at a rough estimate) 50 % of control]

## C[C@@H](NC(=O)[C@@H](N)Cc1ccc(O)cc1)C(=O)NCC(=O)N(C)[C@@H](Cc1ccccc1)C(=O)NCCO [DAMGO]
[3]
  Activity: inhibitor [(at a rough estimate) 50 % of control]

## CC(C)[C@H](NC(=O)[C@H](CCC(=O)O)NC(=O)[C@H](Cc1ccccc1)NC(=O)[C@@H](C)NC(=O)[C@@H](N)Cc1ccc(O)cc1)C(=O)N[C@H](C(=O)NCC(N)=O)C(C)C [DELTORPHIN II]
[4]
  Activity: is not a substrate [-]
[1]
  Km: 330 µM

## C[C@]12CC[C@@H]3c4ccc(OS(=O)(=O)O)cc4CC[C@H]3[C@@H]1CCC2=O [ESTRONE SULFURIC ACID]
[5]
  Activity: inhibitor [(at a rough estimate) 10 % of control]

## C=CCN1CC[C@]23c4c5ccc(O)c4O[C@H]2C(=O)CC[C@@]3(O)[C@H]1C5 [NALOXONE]
[6]
  Activity: inhibitor [(at a rough estimate) 20 % of control]

## Oc1ccc2c3c1O[C@H]1c4[nH]c5ccccc5c4C[C@@]4(O)[C@@H](C2)N(CC2CC2)CC[C@]314 [NALTRINDOLE]
[7]
  Activity: inhibitor [(at a rough estimate) 10 % of control]

B1: Solute carrier organic anion transporter family member 1A4 (Rattus norvegicus) (protein)
chain: T3 sequence (O35913 whole entry)
[8]
  Km: 19 µM

B2: Solute carrier organic anion transporter family member 1A1 (Rattus norvegicus) (protein)
chain: MEETEKKIATQEGRLFSKMKVFLLSLTCACLTKSLSGVYMNSMLTQIERQFDISTSVAGLINGSFEIGNLFFIVFVSYFGTKLHRPVVIGIGCVIMGLGCLLMSLPHFFMGRYEYETTISPTGNLSSNSFLCMENRTQTLKPTQDPAECVKEMKSLMWICVMVGNIIRGIGETPIVPLGISYIEDFAKSENSPLYIGILEMGKVAGPIFGLLLGSYCAQIYVDIGSVNTDDLTITPSDTRWVGAWWIGFLVCAGVNILTSIPFFFLPKALPKKGQQENVAVTKDGKVEKYGGQAREENLGITKDFLTFMKRLFCNPIYMLFILTSVLQVNGFINKFTFLPKYLEQQYGKSTAEAIFLIGVYSLPPICLGYLIGGFIMKKFKITVKKAAYLAFCLSVFEYLLFLCHFMLTCDNAAVAGLTTSYKGVQHQLHVESKVLADCNTRCSCSTNTWDPVCGDNGVAYMSACLAGCKKFVGTGTNMVFQDCSCIQSLGNSSAVLGLCKKGPECANRLQYFLILTIIISFIYSLTAIPGYMVFLRCVKSEEKSLGVGLHTFCIRVFAGIPAPVYFGALIDRTCLHWGTLKCGQRGACRMYDINSFRHIYLGLPIALRGSSYLPAFFILILMRKFQFPGDIDSSATDHTEMMLGEKESEHTDVHGSPQVENDGELKTKL
[9]
  Km: 137 µM
[8]
  Km: 48 µM
